# Test results taken from BindingDB's records for doi:10.7270/Q2CR5RSX (Vanderbilt Screening Center For Gpcrs, Ion Channels and …, 2009).
# Molecular target: T1, Muscarinic acetylcholine receptor M5 (Homo sapiens, UniProt P08912)
# T1 sequence (P08912 whole entry): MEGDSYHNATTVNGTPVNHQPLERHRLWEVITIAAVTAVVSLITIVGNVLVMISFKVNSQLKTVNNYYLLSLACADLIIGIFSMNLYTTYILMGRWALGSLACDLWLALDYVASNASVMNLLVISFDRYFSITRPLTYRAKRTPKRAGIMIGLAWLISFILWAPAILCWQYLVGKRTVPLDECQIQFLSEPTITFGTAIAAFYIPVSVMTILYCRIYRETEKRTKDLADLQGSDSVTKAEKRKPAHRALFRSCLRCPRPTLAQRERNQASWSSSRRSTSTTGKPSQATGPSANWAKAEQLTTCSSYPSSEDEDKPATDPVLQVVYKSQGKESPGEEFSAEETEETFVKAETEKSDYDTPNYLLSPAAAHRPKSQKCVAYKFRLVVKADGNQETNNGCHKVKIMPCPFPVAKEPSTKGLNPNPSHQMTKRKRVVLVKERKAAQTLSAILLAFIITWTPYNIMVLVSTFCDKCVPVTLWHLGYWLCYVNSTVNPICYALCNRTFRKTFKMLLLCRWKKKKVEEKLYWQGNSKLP
# Assay: compound effect on ACh competition at M5, biochemical, [3H]N-methylscopolamine, acetylcholine (AID 2194)
smiles,measurement,value
COc1ccc(CN2C(=O)C(=O)c3cc(OC(F)(F)F)ccc32)cc1 [VU0238429],EC50,210 nM
